One assay addresses T1, human GIP receptor (Homo sapiens, UniProt P48546).
T1 construct: expressed in transfected cells; host or cells: BHK (parent line BHKTS13), clone BHK CRE luc2P hGIPR
T1 sequence (P48546 22-466): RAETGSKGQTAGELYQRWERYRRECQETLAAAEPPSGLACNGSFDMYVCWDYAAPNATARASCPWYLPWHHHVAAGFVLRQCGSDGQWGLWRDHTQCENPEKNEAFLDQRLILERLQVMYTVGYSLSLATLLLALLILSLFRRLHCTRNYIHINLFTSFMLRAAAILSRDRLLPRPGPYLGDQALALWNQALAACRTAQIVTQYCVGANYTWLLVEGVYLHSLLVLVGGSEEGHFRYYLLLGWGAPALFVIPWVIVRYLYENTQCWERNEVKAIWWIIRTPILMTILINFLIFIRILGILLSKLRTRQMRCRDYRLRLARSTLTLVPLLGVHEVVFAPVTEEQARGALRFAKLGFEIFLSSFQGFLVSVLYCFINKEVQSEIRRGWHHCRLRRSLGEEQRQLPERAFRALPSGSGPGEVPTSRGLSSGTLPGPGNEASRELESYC
Kind of assay: In vitro functional potency, CRE luciferase reporter, whole BHK cells (hGIPR). The note with it: BHK CRE luc2P hGIPR cells. Type of assay: cell-based. On the procedure: (§1) The in vitro functional potency is the measure of target receptor activation in a whole cell assay.
(§2) In vitro functional potency was determined by measuring the response of the target receptor in a reporter gene assay in individual cell lines. […] When the respective receptor is activated, it results in the production of cAMP, which in turn results in expression of the luciferase protein. When assay incubation is completed, luciferase substrate (luciferin) is added resulting in the enzymatic conversion of luciferin to oxyluciferin and producing bioluminescence. The luminescence is measured as the readout for the assay.
(§3) The cells lines used in these assays were BHK cells with BHKTS13 as a parent cell line. The cell lines were derived from a clone containing the CRE luciferase element and were established by further transfection with the respective human receptor to obtain the relevant cell line: BHK CRE luc2P hGLP-1R or BHK CRE luc2P hGIPR. The cells were cultured at 37° C. with 5% CO2 in Cell Culture Medium. They were aliquoted and stored in liquid nitrogen. The cells were kept in continuous culture and were seeded out the day before each assay.
(§4) GLP-1R Cell Culture Medium consisted of DMEM medium with 10% FBS, 500 µg/mL G418, and 300 µg/mL hygromycin. GIPR Cell Culture Medium consisted of DMEM medium with 10% FBS, 400 µg/mL G418, and 300 µg/mL hygromycin. Assay Buffer consisted of DMEM w/o phenol red, 10 mM Hepes, 1× Glutamax. 1% ovalbumin, and 0.1% Pluronic F-68 with the addition of HSA at twice the final assay concentration.
(§5) 1) Cells were plated at 5000 cells/well and incubated overnight in the assay plate. 2) Cells were washed once in DPBS. 3) Stocks of the test compounds and reference compounds in concentrations ranging from […] were diluted 1:150 in Assay Buffer. Compounds were then diluted 1:10 in column 1 of a 96 deep well dilution plate and then carried across the row creating a 3.5 fold, 12 point dilution curve. 4) Assay Buffer (50 μl aliquot) with or without HSA was added to each well in the assay plate. 5) A 50 μl aliquot of compound or blank was transferred from the dilution plate to the assay plate containing the Assay Buffer with or without HSA. 6) The assay plate was incubated for 3 h in a 5% CO2 incubator at 37° C. 7) The cells were washed once with DPBS. 8) A 100 μl aliquot of DPBS was added to each well of the assay plate. 9) A 100 μl aliquot of steadylite plus reagent (light sensitive) was added to each well of the assay plate. 10) Each assay plate was covered with aluminum foil to protect it from light and shaken at 250 RPM for 30 min at room temperature. 11) Each assay plate was read in a microtiter plate reader.
(§6) The data from the microtiter plate reader was first regressed in an Excel in order to calculate the x-axis, log scale concentrations based on the individual test compound's stock concentration and the dilutions of the assay. […] The software performs a non-linear regression (log(agonist) vs response). A minimum of two replicates was measured for each sample. The reported values are averages of the replicates.
For orientation: Reporter assays use an easily measured gene product as a stand-in for the process of interest.

The next assay concerns the target human GLP-1 receptor (Homo sapiens, UniProt P43220). Kind of assay: In vitro functional potency, CRE luciferase reporter, whole BHK cells (hGLP-1R). Format: cell-based. Details: expressed in transfected cells; host or cells: BHK (parent line BHKTS13), clone BHK CRE luc2P hGLP-1R. To be noted: BHK CRE luc2P hGLP-1R cells. On the procedure: as §1, §2, §3, §4, §5, §6

Where [1] appears, read: 0% HSA, read-out: hGIPR, CRE Luc 0% HSA EC50.
The mark [2] stands for this setting: hGIPR, CRE Luc 1% HSA EC50, 1% HSA.
The mark [3] stands for this setting: 0% HSA, read-out: hGLP-1R, CRE Luc 0% HSA EC50.
The mark [4] stands for this setting: hGLP-1R, CRE Luc 1% HSA EC50, 1% HSA.

pEC50: −log10 of the molar value. Like-named read-outs stand apart in the source and are kept apart here. Starred links: 1 amine or outer side, 2 acyl side, 3 side chain; linkers in the order of their positions; H or OH if unused. Non-standard residues stand in square brackets, D forms with d. Residues, ends and D or L forms follow the SMILES beside them. Groups on a side chain read outwards from the residue. *: point of attachment. C18 diacid = O=C(O)CCCCCCCCCCCCCCCCC(=O)*; C16 diacid = O=C(O)CCCCCCCCCCCCCCC(=O)*; γGlu = O=C(O)[C@H](CCC(=O)[*:2])N[*:1]; εLys = N[C@@H](CCCCN[*:1])C(=O)[*:2]; AEEA = NCCOCCOCC(=O)O; Aib = CC(C)(N)C(=O)O

human GLP-1 receptor, sequence (P43220 24-463): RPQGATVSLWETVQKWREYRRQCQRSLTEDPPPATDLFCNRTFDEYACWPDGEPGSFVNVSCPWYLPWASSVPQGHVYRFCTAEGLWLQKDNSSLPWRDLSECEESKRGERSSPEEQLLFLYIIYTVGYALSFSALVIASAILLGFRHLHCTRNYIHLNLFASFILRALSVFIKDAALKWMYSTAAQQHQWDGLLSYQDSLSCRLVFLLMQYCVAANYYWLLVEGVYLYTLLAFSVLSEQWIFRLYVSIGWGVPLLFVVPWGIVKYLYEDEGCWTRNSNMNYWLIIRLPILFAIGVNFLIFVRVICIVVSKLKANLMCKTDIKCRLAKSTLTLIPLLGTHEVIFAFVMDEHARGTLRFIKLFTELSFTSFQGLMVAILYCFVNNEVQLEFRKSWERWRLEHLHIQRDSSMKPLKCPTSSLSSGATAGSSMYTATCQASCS

Regarding `CC[C@H](C)[C@H](NC(=O)[C@H](CO)NC(=O)[C@H](Cc1ccc(O)cc1)NC(=O)[C@H](CC(=O)O)NC(=O)[C@H](CO)NC(=O)[C@@H](NC(=O)[C@H](Cc1ccccc1)NC(=O)[C@@H](NC(=O)CNC(=O)[C@H](CCC(=O)O)NC(=O)C(C)(C)NC(=O)[C@@H](N)Cc1ccc(O)cc1)[C@@H](C)O)[C@@H](C)O)C(=O)N[C@@H](CC(C)C)C(=O)N[C@@H](CC(C)C)C(=O)N[C@@H](CCC(=O)O)C(=O)N[C@@H](CCCCNC(=O)[C@@H](N)CCCCNC(=O)[C@@H](N)CCCCNC(=O)CC[C@H](NC(=O)CCCCCCCCCCCCCCCCC(=O)O)C(=O)O)C(=O)N[C@@H](CCC(N)=O)C(=O)N[C@@H](C)C(=O)N[C@@H](C)C(=O)N[C@@H](CCCNC(=N)N)C(=O)N[C@@H](CCC(=O)O)C(=O)N[C@@H](Cc1ccccc1)C(=O)N[C@H](C(=O)N[C@@H](CC(N)=O)C(=O)N[C@@H](Cc1c[nH]c2ccccc12)C(=O)N[C@@H](CC(C)C)C(=O)N[C@@H](CC(C)C)C(=O)N[C@@H](C)C(=O)NCC(=O)NCC(=O)N1CCC[C@H]1C(=O)N[C@@H](CO)C(=O)N[C@@H](CO)C(=O)NCC(=O)N[C@@H](C)C(=O)N1CCC[C@H]1C(=O)N1CCC[C@H]1C(=O)N1CCC[C@H]1C(=O)N[C@@H](CO)C(=O)O)C(C)C` [Compound 22] (H-Y[Aib]EGTFTSDYSILLEK([εLys-εLys-γGlu-C18 diacid])QAAREFVNWLLAGGPSSGAPPPS-OH), the pEC50 (as a rule, −log10 of the EC50, conventionally taken in molar units) on human GIP receptor (setting [1]) is 11.21; at human GIP receptor (setting [2]), 9.77; at human GLP-1 receptor (setting [3]) it was 11.55; at human GLP-1 receptor (setting [4]) it was 9.77.
In the case of `CC[C@H](C)[C@H](NC(=O)[C@H](Cc1ccccc1)NC(=O)[C@H](CCC(=O)O)NC(=O)[C@H](CCCNC(=N)N)NC(=O)[C@H](C)NC(=O)[C@H](C)NC(=O)[C@H](CCC(N)=O)NC(=O)[C@H](CCCCNC(=O)[C@@H](N)CCCCNC(=O)[C@@H](N)CCCCNC(=O)CC[C@H](NC(=O)CCCCCCCCCCCCCCCCC(=O)O)C(=O)O)NC(=O)[C@H](CCC(=O)O)NC(=O)[C@H](CC(C)C)NC(=O)[C@H](CC(C)C)NC(=O)[C@@H](NC(=O)[C@H](CO)NC(=O)[C@H](Cc1ccc(O)cc1)NC(=O)[C@H](CC(=O)O)NC(=O)[C@H](CO)NC(=O)[C@@H](NC(=O)[C@@H](NC(=O)[C@@H](NC(=O)CNC(=O)[C@H](CCC(=O)O)NC(=O)C(C)(C)NC(=O)[C@@H](N)Cc1ccc(O)cc1)[C@@H](C)O)C(C)C)[C@@H](C)O)[C@@H](C)CC)C(=O)N[C@@H](CC(N)=O)C(=O)N[C@@H](Cc1c[nH]c2ccccc12)C(=O)N[C@@H](CC(C)C)C(=O)N[C@@H](CC(C)C)C(=O)N[C@@H](C)C(=O)NCC(=O)NCC(=O)N1CCC[C@H]1C(=O)N[C@@H](CO)C(=O)N[C@@H](CO)C(=O)NCC(=O)N[C@@H](C)C(=O)N1CCC[C@H]1C(=O)N1CCC[C@H]1C(=O)N1CCC[C@H]1C(=O)N[C@@H](CO)C(=O)O` [Compound 33] (H-Y[Aib]EGTVTSDYSILLEK([εLys-εLys-γGlu-C18 diacid])QAAREFINWLLAGGPSSGAPPPS-OH), the pEC50 at human GIP receptor (setting [1]) was 11.54; on human GIP receptor (setting [2]), 9.99; at human GLP-1 receptor (setting [3]), 10.83; at human GLP-1 receptor (setting [4]), 9.44.
As for `CC[C@H](C)[C@H](NC(=O)[C@H](Cc1ccccc1)NC(=O)[C@H](CCC(=O)O)NC(=O)[C@H](CCCNC(=N)N)NC(=O)[C@H](C)NC(=O)[C@H](C)NC(=O)[C@H](CCC(N)=O)NC(=O)[C@H](CCC(=O)O)NC(=O)[C@H](CCC(=O)O)NC(=O)[C@H](CC(C)C)NC(=O)[C@H](CC(C)C)NC(=O)[C@@H](NC(=O)[C@H](CO)NC(=O)[C@H](Cc1ccc(O)cc1)NC(=O)[C@H](CC(=O)O)NC(=O)[C@H](CO)NC(=O)[C@@H](NC(=O)[C@H](Cc1ccccc1)NC(=O)[C@@H](NC(=O)CNC(=O)[C@H](CCC(=O)O)NC(=O)C(C)(C)NC(=O)[C@@H](N)Cc1ccc(O)cc1)[C@@H](C)O)[C@@H](C)O)[C@@H](C)CC)C(=O)N[C@@H](CCC(=O)O)C(=O)N[C@@H](Cc1c[nH]c2ccccc12)C(=O)N[C@@H](CC(C)C)C(=O)N[C@@H](CC(C)C)C(=O)N[C@@H](C)C(=O)NCC(=O)NCC(=O)N1CCC[C@H]1C(=O)N[C@@H](CO)C(=O)N[C@@H](CCCCNC(=O)COCCOCCNC(=O)COCCOCCNC(=O)CC[C@H](NC(=O)CCCCCCCCCCCCCCC(=O)O)C(=O)O)C(=O)NCC(=O)N[C@@H](C)C(=O)N1CCC[C@H]1C(=O)N1CCC[C@H]1C(=O)N1CCC[C@H]1C(=O)N[C@@H](CO)C(=O)O` [Compound 47] (H-Y[Aib]EGTFTSDYSILLEEQAAREFIEWLLAGGPSK([AEEA-AEEA-γGlu-C16 diacid])GAPPPS-OH), the pEC50 on human GIP receptor (setting [1]) is 11.51; at human GIP receptor (setting [2]) it was 9.81; on human GLP-1 receptor (setting [3]), 11.68; on human GLP-1 receptor (setting [4]) it was 9.81.
Take `CC[C@H](C)[C@H](NC(=O)[C@H](Cc1ccccc1)NC(=O)[C@H](CCC(=O)O)NC(=O)[C@H](CCCNC(=N)N)NC(=O)[C@H](C)NC(=O)[C@H](C)NC(=O)[C@H](CCC(N)=O)NC(=O)[C@H](CCC(=O)O)NC(=O)[C@H](CCC(=O)O)NC(=O)[C@H](CC(C)C)NC(=O)[C@H](CC(C)C)NC(=O)[C@@H](NC(=O)[C@H](CO)NC(=O)[C@H](Cc1ccc(O)cc1)NC(=O)[C@H](CC(=O)O)NC(=O)[C@H](CO)NC(=O)[C@@H](NC(=O)[C@H](Cc1ccccc1)NC(=O)[C@@H](NC(=O)CNC(=O)[C@H](CCC(=O)O)NC(=O)C(C)(C)NC(=O)[C@@H](N)Cc1ccc(O)cc1)[C@@H](C)O)[C@@H](C)O)[C@@H](C)CC)C(=O)N[C@@H](CCC(=O)O)C(=O)N[C@@H](Cc1c[nH]c2ccccc12)C(=O)N[C@@H](CC(C)C)C(=O)N[C@@H](CC(C)C)C(=O)N[C@@H](C)C(=O)NCC(=O)NCC(=O)N1CCC[C@H]1C(=O)N[C@@H](CO)C(=O)N[C@@H](CCCCNC(=O)COCCOCCNC(=O)COCCOCCNC(=O)CC[C@H](NC(=O)CCCCCCCCCCCCCCCCC(=O)O)C(=O)O)C(=O)NCC(=O)N[C@@H](C)C(=O)N1CCC[C@H]1C(=O)N1CCC[C@H]1C(=O)N1CCC[C@H]1C(=O)N[C@@H](CO)C(=O)O` [Compound 45] (H-Y[Aib]EGTFTSDYSILLEEQAAREFIEWLLAGGPSK([AEEA-AEEA-γGlu-C18 diacid])GAPPPS-OH): the negative-log EC50 (pEC50) at human GIP receptor (setting [1]) is 11.42; on human GIP receptor (setting [2]) it was 8.91; at human GLP-1 receptor (setting [3]), 11.41; on human GLP-1 receptor (setting [4]), 8.80.

The values above are taken from patent US20220177538A1, “CO-AGONISTS AT GLP-1 AND GIP RECEPTORS SUITABLE FOR ORAL DELIVERY” (Novo Nordisk A/S, priority 2020, published 2022).
